{"source": "patent US9717247B2", "about": "“Synergistic fungicidal active combinations” (BAYER CROPSCIENCE AG, priority 2003, dated 2017)", "key": {"[1]": {"test_system": "Erysiphe graminis f.sp. hordei", "test": "Erysiphe test (barley)/curative", "format": "in vivo", "conditions": "application rate 25 g/ha, curative, evaluation 6 days after inoculation"}, "[2]": {"test_system": "Erysiphe graminis f.sp. hordei", "test": "Erysiphe test (barley)/protective", "format": "in vivo", "conditions": "application rate 12.5 g/ha, protective, evaluation 6 days after inoculation"}, "Sphaerotheca fuliginea": {"test_system": "Sphaerotheca fuliginea", "test": "Sphaerotheca fuliginea test (cucumber)/protective", "format": "in vivo", "conditions": "Podosphaera fuliginea, 168 h, protective, 7 days after inoculation, read-out: Efficacy in % found"}, "Alternaria solani": {"test_system": "Alternaria solani", "test": "Alternaria solani test (tomato)/protective", "format": "in vivo", "conditions": "protective, 3 days after inoculation"}, "Plasmopara viticola": {"test_system": "Plasmopara viticola", "test": "Plasmopara viticola test (grapevine)/protective", "format": "in vivo", "conditions": "protective, 6 days after inoculation"}, "Pyricularia oryzae": {"test_system": "Pyricularia oryzae", "format": "cell-based", "conditions": "3 ppm; in vitro, PDB, 3 days of incubation"}, "Rhizoctonia solani": {"test_system": "Rhizoctonia solani", "test": "Rhizoctonia solani test (in vitro)/microtitre plates", "format": "cell-based", "conditions": "PDB, 5 days of incubation", "method": "Rhizoctonia solani Test (In Vitro)/Microtitre Plates The microtest is carried out in microtitre plates using potato dextrose broth (PDB) as liquid test medium. The active compounds are used as technical grade a.i., dissolved in acetone. For inoculation, a mycelium suspension of Rhizoctonia solani is used. After 5 days of incubation in the dark and with shaking (10 Hz) for each filled cavity of the microtitre plates, the light transmittance is determined with the aid of a spectrophotometer."}, "Gibberella zeae": {"test_system": "Gibberella zeae", "format": "cell-based", "conditions": "0.3 ppm; in vitro, PDB, 3 days of incubation"}, "Botrytis cinerea [3]": {"test_system": "Botrytis cinerea", "test": "Botrytis cinerea test (in vitro)/microtitre plates", "format": "cell-based", "conditions": "3 ppm, PDB, 7 days of incubation"}, "Botrytis cinerea [4]": {"test_system": "Botrytis cinerea", "test": "Botrytis cinerea test (bean)/protective", "conditions": "protective, 2 days after inoculation"}, "Pyrenophora teres": {"test_system": "Pyrenophora teres", "test": "Pyrenophora teres test (barley)/curative", "conditions": "in Hordeum vulgare, 288 h, read-out: Efficacy in % found"}, "Puccinia recondita": {"test_system": "Puccinia recondita", "test": "Puccinia recondita test (wheat)/curative", "conditions": "application rate 62.5 g/ha, curative, evaluation 8 days after inoculation"}}, "data": [{"smiles": "Cc1nn(C)c(F)c1C(=O)Nc1ccccc1C(C)CC(C)C", "note": "(stereo not drawn) [(1-2), N-[2-(1,3-dimethylbutyl)phenyl]-5-fluoro-1,3-dimethyl-1H-pyrazole-4-carboxamide]", "values": [{"measurement": "Efficacy in % found", "setting": "[1]", "result": 0, "unit": "%"}, {"measurement": "Efficacy in % found", "setting": "[2]", "result": 0, "unit": "%"}, {"measurement": "pest or weed control at 0.5 g/ha", "setting": "Sphaerotheca fuliginea; application rate 0.5 g/ha", "result": 0, "unit": "%"}, {"measurement": "pest or weed control at 1 g/ha", "setting": "Sphaerotheca fuliginea; application rate 1 g/ha", "result": 18, "unit": "%"}, {"measurement": "pest or weed control at 2 g/ha", "setting": "Sphaerotheca fuliginea; application rate 2 g/ha", "result": 30, "unit": "%"}, {"measurement": "pest or weed control at 4 g/ha", "setting": "Sphaerotheca fuliginea; application rate 4 g/ha", "result": 20, "unit": "%"}, {"measurement": "Efficacy in % found", "setting": "Alternaria solani; application rate 1 g/ha", "result": 3, "unit": "%"}, {"measurement": "Efficacy in % found", "setting": "Alternaria solani; application rate 2 g/ha", "result": 23, "unit": "%"}, {"measurement": "Efficacy in % found", "setting": "Plasmopara viticola; application rate 25 g/ha", "result": 0, "unit": "%"}, {"measurement": "Efficacy in % found", "setting": "Plasmopara viticola; application rate 50 g/ha", "result": 0, "unit": "%"}, {"measurement": "Efficacy in % found", "setting": "Pyricularia oryzae", "result": 17, "unit": "%"}, {"measurement": "Efficacy in % found", "setting": "Rhizoctonia solani; 0.003 ppm", "result": 30, "unit": "%"}, {"measurement": "Efficacy in % found", "setting": "Rhizoctonia solani; 1 ppm", "result": 40, "unit": "%"}, {"measurement": "Efficacy in % found", "setting": "Gibberella zeae", "result": 39, "unit": "%"}, {"measurement": "Efficacy in % found", "setting": "Botrytis cinerea [3]", "result": 35, "unit": "%"}, {"measurement": "Efficacy in % found", "setting": "Botrytis cinerea [4]; application rate 5 g/ha", "result": 33, "unit": "%"}, {"measurement": "Efficacy in % found", "setting": "Botrytis cinerea [4]; application rate 10 g/ha", "result": 64, "unit": "%"}, {"measurement": "Efficacy in % found", "setting": "Botrytis cinerea [4]; application rate 20 g/ha", "result": 66, "unit": "%"}, {"measurement": "pest or weed control at 25 g/ha", "setting": "Pyrenophora teres", "result": 29, "unit": "%"}, {"measurement": "pest or weed control at 62.5 g/ha", "setting": "Pyrenophora teres", "result": 71, "unit": "%"}, {"measurement": "Efficacy in % found", "setting": "Puccinia recondita", "result": 94, "unit": "%"}]}]}
